Data reported in ChEMBL document CHEMBL5576145, “Domoic Acid as a Lead for the Discovery of the First Selective Ligand for Kainate Receptor Subtype 5 (GluK5)” (J Med Chem, 2024).
Active and inactive are the calls of the source. No cut-off for these calls is given here.

Tests used:
[1] = target: T1, Glutamate receptor ionotropic, kainate 2 (Homo sapiens, UniProt Q13002); assay: Displacement of [3H]-kainic acid from GluR6 (unknown origin) expressed in Sf9 cells membrane; format: cell membranes, Cell membrane
T1 sequence (Q13002 whole entry): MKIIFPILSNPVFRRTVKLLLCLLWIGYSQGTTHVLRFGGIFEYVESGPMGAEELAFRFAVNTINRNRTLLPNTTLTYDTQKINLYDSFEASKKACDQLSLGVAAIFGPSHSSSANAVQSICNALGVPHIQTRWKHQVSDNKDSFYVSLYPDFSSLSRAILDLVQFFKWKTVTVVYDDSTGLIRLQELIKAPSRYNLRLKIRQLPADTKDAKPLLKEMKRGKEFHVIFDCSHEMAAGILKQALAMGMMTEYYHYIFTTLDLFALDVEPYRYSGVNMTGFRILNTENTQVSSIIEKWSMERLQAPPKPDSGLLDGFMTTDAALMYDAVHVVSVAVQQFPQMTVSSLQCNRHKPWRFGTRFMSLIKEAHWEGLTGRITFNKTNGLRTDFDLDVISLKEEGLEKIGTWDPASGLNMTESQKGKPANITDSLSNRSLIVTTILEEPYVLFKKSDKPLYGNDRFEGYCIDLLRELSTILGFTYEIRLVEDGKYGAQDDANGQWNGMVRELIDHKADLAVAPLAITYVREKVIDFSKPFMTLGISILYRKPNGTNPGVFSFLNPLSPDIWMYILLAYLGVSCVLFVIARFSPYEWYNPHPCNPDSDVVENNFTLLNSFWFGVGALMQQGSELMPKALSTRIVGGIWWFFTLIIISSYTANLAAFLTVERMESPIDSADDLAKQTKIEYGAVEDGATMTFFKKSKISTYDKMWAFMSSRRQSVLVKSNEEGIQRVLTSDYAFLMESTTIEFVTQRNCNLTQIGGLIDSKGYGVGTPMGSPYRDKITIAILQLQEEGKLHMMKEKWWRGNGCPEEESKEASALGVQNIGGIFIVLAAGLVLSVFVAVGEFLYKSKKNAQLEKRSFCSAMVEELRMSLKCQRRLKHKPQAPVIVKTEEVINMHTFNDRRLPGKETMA

[2] = tested on: Hippocampus; assay: Reduction in CA1 spike amplitude in Wistar rat hippocampal slices after 20 mins of toxin administration; format: functional, tissue-based
[3] = tested on: Neuron; assay: Agonist activity at GluK2/K5 in mouse hippocampal neurons assessed as change in holding current at 100 uM by electrophysiology; format: cell-based; settings: filed as agonist
[4] = target: Glutamate receptor ionotropic, kainate 2 (Rattus norvegicus, UniProt P42260); assay: Displacement of [3H]-KA from rat GluK2
Glutamate receptor ionotropic, kainate 2 (Rattus norvegicus, UniProt P42260), sequence (P42260 whole entry): as the sequence (Q13002 whole entry) above, with F5S, I7V, P11L, R14S, T16S, V17I, L19V, A494V counted along it

[5] = target: Glutamate receptor ionotropic, kainate 1 (Rattus norvegicus) (UniProt P22756); assay: Displacement of [3H]-NF608 from rat GluK1 assessed as percent of radioligand binding at 10 uM relative to control
Glutamate receptor ionotropic, kainate 1 (Rattus norvegicus), sequence (P22756 whole entry): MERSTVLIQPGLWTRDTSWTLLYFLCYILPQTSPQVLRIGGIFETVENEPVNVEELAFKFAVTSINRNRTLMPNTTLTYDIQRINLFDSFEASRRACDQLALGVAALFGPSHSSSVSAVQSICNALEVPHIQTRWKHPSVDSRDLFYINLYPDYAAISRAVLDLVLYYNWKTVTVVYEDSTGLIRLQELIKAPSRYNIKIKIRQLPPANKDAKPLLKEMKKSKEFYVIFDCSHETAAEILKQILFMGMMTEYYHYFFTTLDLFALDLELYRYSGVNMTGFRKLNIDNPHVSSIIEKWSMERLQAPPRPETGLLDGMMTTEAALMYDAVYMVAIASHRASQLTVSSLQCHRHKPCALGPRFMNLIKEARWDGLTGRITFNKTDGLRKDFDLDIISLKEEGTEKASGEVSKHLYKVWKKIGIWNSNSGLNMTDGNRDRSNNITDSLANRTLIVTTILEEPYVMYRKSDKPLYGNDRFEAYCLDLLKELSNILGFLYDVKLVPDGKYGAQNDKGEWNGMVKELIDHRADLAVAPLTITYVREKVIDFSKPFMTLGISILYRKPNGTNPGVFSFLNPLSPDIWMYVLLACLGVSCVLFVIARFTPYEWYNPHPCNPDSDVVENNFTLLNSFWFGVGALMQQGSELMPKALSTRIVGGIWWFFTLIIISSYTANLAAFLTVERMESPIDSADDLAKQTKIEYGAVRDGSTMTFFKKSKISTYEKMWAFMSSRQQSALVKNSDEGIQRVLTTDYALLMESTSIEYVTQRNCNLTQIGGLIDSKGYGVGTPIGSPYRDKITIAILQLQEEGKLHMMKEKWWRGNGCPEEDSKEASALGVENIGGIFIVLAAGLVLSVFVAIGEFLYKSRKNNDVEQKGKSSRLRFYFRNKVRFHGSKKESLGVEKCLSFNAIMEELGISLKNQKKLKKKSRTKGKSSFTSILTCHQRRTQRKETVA

[6] = target: Glutamate receptor 4 (Rattus norvegicus) (UniProt P19493); assay: Displacement of [3H]-AMPA from AMPA in rat cortical synaptosomes assessed as remaining activity at 10 uM incubated for 30 mins by TopCount microplate scintillation counting method relative to control; format: subcellular; settings: Cortex, Synaptosome
Glutamate receptor 4 (Rattus norvegicus), sequence (P19493 whole entry): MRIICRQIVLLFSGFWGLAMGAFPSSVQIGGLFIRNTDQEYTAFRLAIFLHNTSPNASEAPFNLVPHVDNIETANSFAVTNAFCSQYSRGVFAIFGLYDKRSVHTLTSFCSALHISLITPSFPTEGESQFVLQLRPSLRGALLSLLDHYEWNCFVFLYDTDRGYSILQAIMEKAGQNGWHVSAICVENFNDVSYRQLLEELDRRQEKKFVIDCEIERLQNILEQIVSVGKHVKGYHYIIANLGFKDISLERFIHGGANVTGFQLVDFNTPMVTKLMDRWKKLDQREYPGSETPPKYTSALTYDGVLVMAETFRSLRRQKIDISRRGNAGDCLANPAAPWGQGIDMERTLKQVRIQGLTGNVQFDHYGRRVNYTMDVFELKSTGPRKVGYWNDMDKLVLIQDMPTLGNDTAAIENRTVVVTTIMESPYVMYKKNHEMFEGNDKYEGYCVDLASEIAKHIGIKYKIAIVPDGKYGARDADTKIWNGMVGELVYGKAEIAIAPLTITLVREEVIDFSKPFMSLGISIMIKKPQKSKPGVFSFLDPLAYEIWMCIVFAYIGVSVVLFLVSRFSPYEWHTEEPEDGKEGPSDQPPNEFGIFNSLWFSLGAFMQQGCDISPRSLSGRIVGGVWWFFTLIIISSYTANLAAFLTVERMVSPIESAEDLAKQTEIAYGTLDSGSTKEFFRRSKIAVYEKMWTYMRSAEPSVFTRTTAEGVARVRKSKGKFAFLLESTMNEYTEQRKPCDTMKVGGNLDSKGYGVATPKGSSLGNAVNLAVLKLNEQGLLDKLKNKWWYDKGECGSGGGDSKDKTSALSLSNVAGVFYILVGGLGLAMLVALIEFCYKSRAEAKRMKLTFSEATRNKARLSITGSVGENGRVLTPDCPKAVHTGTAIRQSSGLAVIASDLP

[7] = Displacement of [3H]-KA from KA in rat cortical synaptosomes incubated for 60 mins by TopCount microplate scintillation counting method; format: subcellular, Cortex, Synaptosome
[8] = target: T2, Ionotropic glutamate receptor kainate 2/5 (Homo sapiens) (UniProt Q16478+Q13002); assay: Agonist activity at GluK2/K5 (unknown origin) expressed in HEK293T cells at 10 uM by electrophysiology; format: cell-based
[9] = target: Glutamate receptor ionotropic, kainate 3 (Rattus norvegicus, UniProt P42264); assay: Displacement of [3H]-KA from rat GluK3
Glutamate receptor ionotropic, kainate 3, sequence (P42264 whole entry): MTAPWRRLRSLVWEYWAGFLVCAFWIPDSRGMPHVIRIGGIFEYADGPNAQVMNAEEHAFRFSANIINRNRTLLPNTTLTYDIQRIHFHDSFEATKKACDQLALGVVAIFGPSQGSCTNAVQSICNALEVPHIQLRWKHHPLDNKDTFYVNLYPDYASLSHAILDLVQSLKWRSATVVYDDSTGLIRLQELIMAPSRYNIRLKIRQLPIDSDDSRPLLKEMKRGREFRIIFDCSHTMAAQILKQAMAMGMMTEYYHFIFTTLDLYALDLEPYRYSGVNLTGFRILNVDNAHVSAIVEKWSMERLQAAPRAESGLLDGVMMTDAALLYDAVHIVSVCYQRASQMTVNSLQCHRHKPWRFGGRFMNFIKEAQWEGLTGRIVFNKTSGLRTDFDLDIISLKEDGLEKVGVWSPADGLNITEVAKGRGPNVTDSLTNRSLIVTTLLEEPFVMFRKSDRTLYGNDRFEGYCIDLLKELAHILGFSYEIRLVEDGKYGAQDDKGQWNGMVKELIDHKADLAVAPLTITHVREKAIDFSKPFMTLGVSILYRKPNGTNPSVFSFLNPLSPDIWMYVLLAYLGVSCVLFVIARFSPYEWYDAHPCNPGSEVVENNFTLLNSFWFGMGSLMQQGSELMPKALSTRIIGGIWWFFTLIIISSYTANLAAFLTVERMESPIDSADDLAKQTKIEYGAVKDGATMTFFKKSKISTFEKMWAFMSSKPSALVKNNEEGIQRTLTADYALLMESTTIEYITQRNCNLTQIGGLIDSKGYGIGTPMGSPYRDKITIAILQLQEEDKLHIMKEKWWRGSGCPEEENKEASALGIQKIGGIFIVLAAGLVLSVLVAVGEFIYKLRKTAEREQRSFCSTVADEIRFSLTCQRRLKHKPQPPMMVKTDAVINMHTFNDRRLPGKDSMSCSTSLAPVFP

[10] = target: T3, Glutamate receptor ionotropic, kainate 5 (Mus musculus, UniProt Q61626); assay: Displacement of [3H]-kainate from mouse GluK5 expressed in Sf9 cell membrane incubated for 2 hrs by scintillation counting method; format: cell membranes
T3 sequence (Q61626 whole entry): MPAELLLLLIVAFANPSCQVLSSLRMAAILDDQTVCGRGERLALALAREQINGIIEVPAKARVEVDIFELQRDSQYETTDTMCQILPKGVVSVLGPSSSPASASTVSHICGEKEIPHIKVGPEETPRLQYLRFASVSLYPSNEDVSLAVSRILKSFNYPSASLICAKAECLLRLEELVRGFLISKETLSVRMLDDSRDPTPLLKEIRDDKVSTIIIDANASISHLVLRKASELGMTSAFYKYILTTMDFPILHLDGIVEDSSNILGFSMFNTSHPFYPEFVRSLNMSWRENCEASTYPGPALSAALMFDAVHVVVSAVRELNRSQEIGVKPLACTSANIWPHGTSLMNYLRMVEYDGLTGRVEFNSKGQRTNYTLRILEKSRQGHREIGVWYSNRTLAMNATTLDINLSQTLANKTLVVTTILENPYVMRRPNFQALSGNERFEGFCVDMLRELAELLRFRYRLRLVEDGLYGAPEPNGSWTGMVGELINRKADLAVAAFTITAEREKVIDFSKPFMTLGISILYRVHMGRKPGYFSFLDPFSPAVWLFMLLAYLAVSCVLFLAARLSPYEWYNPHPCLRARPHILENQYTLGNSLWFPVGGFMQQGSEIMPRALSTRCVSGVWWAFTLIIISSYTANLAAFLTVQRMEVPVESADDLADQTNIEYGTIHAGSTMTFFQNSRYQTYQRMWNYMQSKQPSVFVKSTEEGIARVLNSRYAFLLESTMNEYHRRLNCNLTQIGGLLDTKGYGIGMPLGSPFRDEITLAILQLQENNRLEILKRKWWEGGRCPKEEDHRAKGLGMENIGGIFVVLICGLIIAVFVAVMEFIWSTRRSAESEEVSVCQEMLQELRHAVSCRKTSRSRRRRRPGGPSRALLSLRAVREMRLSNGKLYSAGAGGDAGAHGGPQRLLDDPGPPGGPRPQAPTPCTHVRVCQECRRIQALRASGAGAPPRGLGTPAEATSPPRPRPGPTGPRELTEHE

[11] = target: T2, Ionotropic glutamate receptor kainate 2/5 (Homo sapiens); assay: Antagonist activity at GluK2/K5 (unknown origin) expressed in HEK293T cells preincubated with compound followed by L-Glu stimulation by electrophysiology; format: cell-based
[12] = target: Glutamate NMDA receptor (Rattus norvegicus) (UniProt P35439+Q00959+Q00960+Q00961+Q62645+Q8VHN2+Q9R1M7); assay: Displacement of [3H]CGP39653 from NMDA receptor in rat cortical synaptosomes assessed as remaining activity at 10 uM incubated for 60 mins by Topcount microplate scintillation counting method relative to control; format: subcellular; settings: Cortex, Synaptosome
[13] = tested on: Neuron; assay: Agonist activity at GluK2/K5 in mouse hippocampal neurons assessed as change in holding current at 10 uM by electrophysiology; format: cell-based; settings: filed as agonist
[14] = Displacement of [3H]-Kainic acid from KA in rat synaptic membrane; format: subcellular, Synaptosome
[15] = target: T4, Glutamate receptor 4 (Rattus norvegicus, UniProt P19493); assay: Binding affinity to AMPA receptor in rat synaptosomes; format: subcellular, Synaptosome
T4 sequence (P19493 whole entry): as the sequence (P19493 whole entry) above

[16] = target: Glutamate receptor ionotropic, kainate 1 (Homo sapiens, UniProt P39086); assay: Displacement of [3H](2S, 4R)-4-MeGlu (SYM-2081) from GluK1 (unknown origin)
Glutamate receptor ionotropic, kainate 1, sequence (P39086 whole entry): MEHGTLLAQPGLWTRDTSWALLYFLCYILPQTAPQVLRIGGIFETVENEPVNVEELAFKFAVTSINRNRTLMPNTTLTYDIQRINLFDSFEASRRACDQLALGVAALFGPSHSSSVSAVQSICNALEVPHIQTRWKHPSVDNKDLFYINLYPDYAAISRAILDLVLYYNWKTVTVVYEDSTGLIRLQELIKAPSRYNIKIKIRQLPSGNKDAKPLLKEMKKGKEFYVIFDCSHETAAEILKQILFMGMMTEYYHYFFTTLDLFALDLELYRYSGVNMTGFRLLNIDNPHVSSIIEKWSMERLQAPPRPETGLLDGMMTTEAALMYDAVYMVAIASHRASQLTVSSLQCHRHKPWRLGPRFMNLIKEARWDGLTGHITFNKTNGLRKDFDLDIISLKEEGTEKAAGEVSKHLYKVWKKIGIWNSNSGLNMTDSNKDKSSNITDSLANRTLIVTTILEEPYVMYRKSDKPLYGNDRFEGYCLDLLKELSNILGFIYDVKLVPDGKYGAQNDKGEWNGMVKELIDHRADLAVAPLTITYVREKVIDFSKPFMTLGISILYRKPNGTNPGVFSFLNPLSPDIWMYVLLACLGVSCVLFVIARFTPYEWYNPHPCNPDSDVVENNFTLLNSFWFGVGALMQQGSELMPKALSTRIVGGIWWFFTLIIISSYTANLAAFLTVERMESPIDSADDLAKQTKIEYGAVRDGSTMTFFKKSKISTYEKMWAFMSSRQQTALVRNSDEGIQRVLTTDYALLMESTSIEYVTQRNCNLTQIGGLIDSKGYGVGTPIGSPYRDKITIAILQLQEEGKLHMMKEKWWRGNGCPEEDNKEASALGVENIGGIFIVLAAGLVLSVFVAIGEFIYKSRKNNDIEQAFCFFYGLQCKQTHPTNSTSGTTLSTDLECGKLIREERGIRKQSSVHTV

[17] = target: T4, Glutamate receptor 4; assay: Displacement of [3H]-AMPA from AMPA in rat synaptic membrane; format: subcellular, Synaptosome
[18] = Binding affinity to KA receptor in rat synaptosomes; format: subcellular, Synaptosome
[19] = target: T1, Glutamate receptor ionotropic, kainate 2; assay: Displacement of [3H](2S, 4R)-4-MeGlu (SYM-2081) from GluK2 (unknown origin)

SMILES | Ki [1] | EC50 [2] | Activity [3] | Ki [4] | Activity [5] | Activity [6] | IC50 [7] | Activity [8] | Ki [9] | Ki [10] | Activity [11] | Activity [12] | Activity [13] | IC50 [14] | IC50 [15] | Ki [16] | IC50 [17] | IC50 [18] | Ki [19]
C/C(=C/C/C=C(\C)C(=O)O)[C@H]1CN[C@H](C(=O)O)[C@H]1CC(=O)O | 130 nM | 887 nM |  |  |  |  |  |  |  |  |  |  |  |  |  |  |  |  | 
O=C(O)C[C@@H]1[C@@H](C(=O)O)NC[C@@H]1n1nncc1-c1ccc2cc(O)ccc2c1 |  |  | 148 pA | 70000 nM | 90% | 90% | 4400 nM | inactive | 17900 nM | 432 nM | inactive | 99% | 56 pA |  |  |  |  |  | 
C/C(=C/C=C/[C@@H](C)C(=O)O)[C@H]1CN[C@H](C(=O)O)[C@H]1CC(=O)O [DOMOIC ACID] |  | 228 nM |  |  |  |  |  |  |  |  |  |  |  | 4 nM | 9000 nM | 1.11 nM | 470 nM | 15 nM | 6.04 nM
